Source: US9078874B2, “Composition and method for treating cognitive impairments in down syndrom subjects” (Centre National De La Recherche Scientifique—CNRS, priority 2009, dated 2015)

Legend:
euploid and Ts65Dn mice [1] = test: Convulsant effects after a single intraperitoneal injection; format: in vivo; details: 50 mg/kg i.p., observed 20 min
Protocol: The convulsant action of the α5IA or beta CCM was evaluated after a single intraperitoneal injection of 50 or 3 mg/Kg of α5IA or beta CCM, respectively. The 50 mg/Kg dose of α5IA corresponded to 10 times the dose with promnesiant effects and 10 times the active dose in the object recognition test (5 mg/Kg)
(§1) The proconvulsant action of the α5IA was measured after injection of a subconvulsive dose of pentylenetetrazole. Mice were injected with either vehicle or the α5IA (50 mg/kg i.p) and 20 min later they received an intraperitoneal injection of 45 mg/kg of pentylenetetrazole. […] Six to 7 mice were used for each condition. The latency to the first myoclonic jerk episode and the convulsion grade were recorded during a 1200-s period of observation. Four grades were empirically determined: Grade 0: no effect; grade 1: tail up and curved; grade 2: reversed tail and convulsive shivers; grade 3: myoclonic convulsions.
(§2) We then tested the proconvulsant effect of α5IA by injecting it (50 mg/kg) 20 min before a sub-convulsant dose of pentylenetetrazol (45 mg/kg) that induces myoclonic convulsions in about 50% of mice.

euploid and Ts65Dn mice [2] = test: Pro-convulsant effects after pentylenetetrazol (45 mg/kg); format: in vivo; details: mouse, in vivo, 50 min
Protocol: For testing the pro-convulsant effects of α5IA, a sub-convulsant dose of pentylenetetrazole (45 mg/kg i.p.) that induces myoclonic convulsions in about 50% of mice was injected i.p. 20 min after injection of α5IA (50 mg/kg) or placebo.
as §1, §2

euploid and Ts65Dn mice [3] = test: Anxiety-related behavior in the elevated plus maze; format: in vivo; details: for Time spent in the open arms of the elevated plus-maze: acute, one single 15 mg/kg i.p. injection
Protocol: FIG. 6 depicts results from an anxiety-related behavior study of α5IA. Anxiety was assessed in the elevated plus maze, in both euploid and Ts65Dn mice under placebo or α5IA. Time spent in the open arms of the elevated plus-maze was taken as a measure of anxiety levels.
Modulation of anxiety-related behaviors by α5IA was more precisely assessed using an elevated-plus maze, in a total of 42 mice, 30 min after i.p. injections (placebo: 11 euploid and 7 Ts65Dn mice; α5IA (15 mg/kg): 14 euploid and 10 Ts65Dn mice). The maze was constructed of black perspex (length, 28 cm; width, 5 cm; height from floor, 40 cm; overall luminosity in open arms: 70 1×) with two opposing open arms, and two enclosed arms equipped with three 16 cm high walls. Mice were placed in the central region of the maze and behavior was recorded for a 5 min period using the Any. Maze software that automatically calculates the time spent in the different parts of the maze (e.g., open and enclosed arms).
To explore the potential adversity of chronic injections of α5IA (5 mg/kg), another group of euploid mice was treated for two weeks (5 injections/week; 5 α5IA treated mice; 5 placebo-treated mice). After repeated treatment, these mice were evaluated in the elevated plus maze as described above.

euploid and Ts65Dn mice [4] = test: Locomotor activity and anxiety in the open field; format: in vivo
Protocol: FIG. 7 depicts results from a locomotor activity and anxiety study of α5IA in Ts65Dn and euploid mice in the open field. Effects of α5IA (5 mg/kg) were evaluated on locomotion and anxiety in the open field.
Locomotor activity was evaluated in a total of 33 mice 30 min after i.p. injections (placebo: 8 euploid and 7 Ts65Dn mice; α5IA (5 mg/kg): 10 euploid and 8 Ts65Dn mice). Locomotion was measured in a square open field (50 cm×50 cm; luminosity: 30 lux) with black walls 30 cm high. Briefly, each animal was placed in the center of the arena and allowed to freely explore it for 10 min. Horizontal activity was monitored using the Any-Maze software. Time spent in the 10-cm wide peripheral zone and in the complementary 30 cm×30 cm central zone was recorded to evaluate anxiety.

euploid and Ts65Dn mice [5] = test: Morris water maze (MWM) spatial reference memory; format: in vivo
Protocol: Spatial reference memory was evaluated using the standard Morris water maze task. The maze was similar to the one described above (dose-response effects of α5IA). The platform was submerged 1 cm below water surface in the center of one of the pool quadrants. During spatial allocentric training the non-visible platform remained at a constant position throughout the trials with numerous external visual indices available to facilitate formation of spatial cognitive maps.
A total of 32 mice (16 euploid and 16 Ts65Dn mice) were used. Animals were randomly and equally distributed into 4 groups. Each day mice were injected with placebo or α5IA (5 mg/kg) 30 min before the onset of behavioral testing.
On the first day, mice were submitted to a single habituation trial with the non-visible platform available. On the following six days, spatial allocentric training consisted in daily sessions (2 trials per session). Start positions varied pseudo-randomly among the four cardinal points. Mean inter-trial interval was 2 hours. During the habituation and spatial training phases each trial ended when the animal reached the platform. A 90 sec cut-off was used, after which mice were manually guided to the platform. Once on the platform, animals were given a 20 sec rest before being replaced in their cage. Twenty-four hours after the last training session, a probe trial was performed (Day 8) during which the platform was removed and mice allowed to freely navigate for 60 sec.
Following evaluation of spatial learning and memory skills, visual ability of mice was controlled using a non-spatial training procedure. Platform location was directly cued by a white styrene ball placed 12 cm above water surface and access to external indices was prevented by a black curtain surrounding the pool. Testing in this visually guided navigation task consisted of 4 daily sessions for 4 consecutive days as described above.
All data were collected, analyzed and stored using a video-tracking system (Ethovision, Noldus, Wageningen, The Netherlands).
During probe trial one supplementary (euploid) mouse was removed from analysis for the same reason.

rats = details: 240 mg/kg for 5 weeks; cited from earlier work
[6] = Ts65Dn mice, 5 mg/kg i.p. 30 min before each session

Question: For `Cc1cc(-c2nnc3c4ccccc4c(OCc4cn(C)nn4)nn23)no1` [α5IA, 3-(5-methylisoxazol-3-yl)-6-[(1-methyl-1,2,3-triazol-4-yl)methyloxy]-1,2,4-triazolo[3,4-a]phthalazine], which Convulsant mice rate (euploid and Ts65Dn mice [1]; Euploids) is on record?
Answer: 0/6

Question: And the Convulsant mice rate (euploid and Ts65Dn mice [1]; Ts65Dn)?
Answer: 0/7

Question: And the Convulsant mice rate (euploid and Ts65Dn mice [2]; Ts65Dn)?
Answer: 4/7

Question: What about the Convulsant mice rate (euploid and Ts65Dn mice [2]; euploid) of the same compound?
Answer: 3/6

Question: And the “Time spent in the open arms of the elevated plus-maze” value (euploid and Ts65Dn mice [3]; Ts65Dn mice, p<0.05)?
Answer: significantly reduced the time spent in open arms

Question: And the “Time spent in the open arms of the elevated plus-maze” value (euploid and Ts65Dn mice [3]; euploid mice)?
Answer: did not modify the behavior

Question: What about the “anxiety levels in the elevated plus maze” value (euploid and Ts65Dn mice [3]; semi-chronic, 5 mg/kg 5 times a week for 2 weeks, euploid mice, p>0.73) of the same compound?
Answer: did not alter the anxiety levels

Question: What about the “locomotor activity and anxiety (periphery-to-center exploration ratio) in the open field” value (euploid and Ts65Dn mice [4]; 5 mg/kg, Ts65Dn and euploid mice) of the same compound?
Answer: did not alter locomotor activity and anxiety

Question: What about the “horizontal activity (traveled distances)” value (euploid and Ts65Dn mice [4]; single injection 5 mg/kg, euploid and Ts65Dn mice) of the same compound?
Answer: did not modify the gross locomotor activity

Question: And the “hits (reaching the platform before 90 sec)” value (euploid and Ts65Dn mice [5]; [6])?
Answer: reversed after treatment

Question: And the learning index (euploid and Ts65Dn mice [5]; [6])?
Answer: corrected by treatment

Question: What about the “learning performance in the MWM” value (euploid and Ts65Dn mice [5]; control euploid mice, 5 mg/kg) of the same compound?
Answer: did not observe a significant promnesiant effect

Question: What about the “thigmotaxy, significance of the effect” value (euploid and Ts65Dn mice [5]; euploid mice (p=0.06), 5 mg/kg) of the same compound?
Answer: just failed to reach statistical significance

Question: And the “retention performance during the probe test (24 hours)” value (euploid and Ts65Dn mice [5]; euploid or Ts65Dn mice, 5 mg/kg)?
Answer: did not significantly increase retention performance

Question: What about the “performance in the cued (visible platform) version of the MWM” value (euploid and Ts65Dn mice [5]; p>0.16, 5 mg/kg) of the same compound?
Answer: did not find any effect

Question: What about the “thigmotaxy (wall-seeking behavior)” value (euploid and Ts65Dn mice [5]; particularly in Ts65Dn mice (p<0.001), 5 mg/kg) of the same compound?
Answer: strongly decreased

Question: What about the renal toxicity (rats) of the same compound?
Answer: renal pyelitis and papillitis associated with crystals formation
